Measurements published in patent US11464779B2, “Pharmaceutical formulation of palbociclib and a preparation method thereof” (Shenzhen Pharmacin Co., Ltd., priority 2016, dated 2022).

Assays:
[1] = dynamic solubility test in buffer at pH 6.0 with stirring; assay type: physicochemical; details: phosphate buffer pH 6.0, stirring for 60 minutes
Experimental: 62.5 mg of the solid dispersion prepared in Example 3 (containing 12.5 mg of the API of palbociclib in proportion) and 12.5 mg of the API of palbociclib were weighed separately, placed into two 100 ml beakers, respectively, and marked with T1 and T2. 90 ml of phosphate buffer (pH 6.0) was added to the two beakers respectively and a magnetic stir bar was placed therein. The two beakers were placed on a magnetic stirrer separately. 1 ml of the solution was removed separately from each of the beakers at the time points of 5, 10, 20, 40, and 60 minutes and filtered through a 0.45 μm micro PES polyethersulfone filter membrane. The filtrate was analyzed by high performance liquid chromatography, the content of the API of palbociclib was determined and the dissolution percentage was calculated.

[2] = co-dissolution of API of palbociclib and acidic auxiliary material in a solvent; assay type: physicochemical; details: co-dissolved with pharmaceutically acceptable acidic auxiliary material; solvent e.g. water
Source text: The present invention also provides a method for the preparation of a solid dispersion, comprising: mixing palbociclib with an acidic auxiliary material; adding a solvent (including but not limited to water, ethanol, acetone and a mixture thereof, preferably water or a mixture thereof with other solvents, e.g. the mixture of water and ethanol, the mixture of water and acetone, etc.) for dissolving or dispersing; adding a hydrophilic high-molecular material, dissolving or dispersing evenly; and removing the solvent by heating, for example, evaporating the solvent to dry by vacuum drying or heating drying or freeze drying or other drying ways, in order to achieve the purpose of dispersing the drug in the high-molecular solid carrier to a high degree, so as to prepare the solid dispersion.
In the preparation of the solid dispersion of the present invention, the concentration of the API of palbociclib in the solvent (e.g., water) can be up to 50 mg/ml or more, thereby improving the preparation efficiency of the solid dispersion.

[3] = according to WO2005/005426; cited from earlier work

What does the source list for `CC(=O)c1c(C)c2cnc(Nc3ccc(N4CCNCC4)cn3)nc2n(C2CCCC2)c1=O` [API of palbociclib, palbociclib]?
dynamic solubility (dissolution percentage) [1]: 58%; concentration of the API of palbociclib in the solvent [2]: ≥ 50000 µg/mL; solubility in water [3]: poor
